Laboratory results from patent US20140107109A1, “AMINO-DIHYDROTHIAZINE AND AMINO-DIOXIDO DIHYDROTHIAZINE COMPOUNDS AS BETA-SECRETASE ANTAGONISTS AND METHODS OF USE” (Amgen Inc., priority 2012, published 2014).
Like-named read-outs stand apart in the source and are kept apart here.

Columns and labels:
[1] = system: Aβ40 in conditioned medium of cells stably expressing Amyloid Precursor Protein (APP); assay: In vitro BACE cell-based assay (HEK cell assay), Aβ40 sandwich ELISA
In short: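 APP-stably expressing cells (40K/well, grown 24 h in DMEM/10% FBS) were treated 24 h with compounds in 10-point dose response starting at 100 μM or 10 μM, 0.1% DMSO final. Secreted Aβ40 was measured by sandwich ELISA (pAb40 capture, biotinylated 6E10 detection, europium time-resolved fluorescence); IC50 from percent inhibition.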

[2] = target: T1, Cathepsin D (Cat D) (Homo sapiens, UniProt P07339); assay: In vitro enzymatic Cathepsin D (Cat D) FRET assay; type: biochemical; conditions: read-out: CatD IC50
T1 construct: Recombinant Cat D was expressed in CHO cells; made in house; host or cells: CHO cells
T1 sequence (P07339 65-412, species assumed): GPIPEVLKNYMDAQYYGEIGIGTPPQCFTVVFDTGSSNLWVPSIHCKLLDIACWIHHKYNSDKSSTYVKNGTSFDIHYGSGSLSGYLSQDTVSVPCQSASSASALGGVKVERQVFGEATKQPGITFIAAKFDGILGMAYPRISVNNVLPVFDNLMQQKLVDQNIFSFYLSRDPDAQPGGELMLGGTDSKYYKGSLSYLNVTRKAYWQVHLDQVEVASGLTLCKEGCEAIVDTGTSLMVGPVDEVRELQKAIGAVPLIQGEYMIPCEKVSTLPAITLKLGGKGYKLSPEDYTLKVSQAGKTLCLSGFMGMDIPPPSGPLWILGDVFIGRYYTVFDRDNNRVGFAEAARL
In short: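 Recombinant Cat D expressed in CHO cells, used at 9 nM and pre-incubated one hour with serially diluted inhibitor in DMSO. Peptide substrate carries a fluorophore and quencher flanking the cleavage site; reaction stopped with Tris buffer raising pH to neutrality, then fluorescence read.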

[3] = target: Beta Secretase enzyme (BACE1) (Homo sapiens, UniProt P56817); assay: In vitro enzymatic BACE FRET assay; type: biochemical; conditions: read-out: BACE1 FRET assay IC50
Sequence of Beta Secretase enzyme (BACE1) (P56817 46-501): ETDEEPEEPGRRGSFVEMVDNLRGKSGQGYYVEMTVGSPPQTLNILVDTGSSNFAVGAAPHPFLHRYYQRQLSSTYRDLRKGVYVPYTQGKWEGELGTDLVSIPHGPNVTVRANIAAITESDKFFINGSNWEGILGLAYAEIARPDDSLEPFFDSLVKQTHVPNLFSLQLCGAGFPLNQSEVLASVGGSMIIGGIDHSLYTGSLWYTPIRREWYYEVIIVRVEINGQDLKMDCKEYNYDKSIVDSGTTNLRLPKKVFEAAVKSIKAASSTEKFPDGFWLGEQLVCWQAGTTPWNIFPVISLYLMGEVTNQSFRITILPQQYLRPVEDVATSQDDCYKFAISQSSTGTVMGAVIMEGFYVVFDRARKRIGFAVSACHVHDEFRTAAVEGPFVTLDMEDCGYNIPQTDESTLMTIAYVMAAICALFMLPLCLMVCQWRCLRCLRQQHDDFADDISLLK
In short: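 BACE1 cleavage of a 50 nM fluorophore/quencher peptide FRET substrate ran for one hour in 0.05 M acetate pH 4.2, 10% DMSO, 100 uM genapol. Tris buffer raised pH to neutrality to stop the reaction before fluorescence was read (excitation 488 nm, […]).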

[4] = Homo sapiens, HEK293, average IC50, HEK cell assay
[5] = Homo sapiens, HEK293, average IC50, cell assay
[6] = Homo sapiens, HEK293, Aβ40, 24 h incubation

Compound | IC50 [2] | IC50 [3] | IC50 ([3]; average IC50, enzyme assay) | IC50 [1, 5] | further results
CC(C)c1cc(Cl)cnc1C(=O)Nc1ccc(F)c([C@]2(CF)CS(=O)(=O)C(C)(C)C(N)=N2)c1 [Example 198, (S)—N-(3-(5-amino-3-(fluoromethyl)-6,6-dimethyl-1,1-dioxido-3,6-dihydro-2H-1,4-thiazin-3-yl)-4-fluorophenyl)-5-chloro-3-isopropylpicolinamide 2,2,2-trifluoroacetate] | 850 µM |  | 0.00799 µM |  | IC50 [1, 4]: 0.0914 µM
COc1cnc2c(Nc3ccc(F)c([C@]4(CF)CS(=O)(=O)C5(CCC5)C(N)=N4)c3)nccc2n1 [Example 246, N-(3-((7S)-9-amino-7-(fluoromethyl)-5,5-dioxido-5-thia-8-azaspiro[3.5]non-8-en-7-yl)-4-fluorophenyl)-2-methoxypyrido[3,4-b]pyrazin-5-amine] | 811 µM |  | 0.00146 µM | 0.0216 µM | 
COc1cnc2c(Nc3cnc(F)c([C@]4(C)CS(=O)(=O)C(C)(C)C(N)=N4)c3)ncc(F)c2c1 [Example 219, N-(5-((3R)-5-amino-3,6,6-trimethyl-1,1-dioxido-3,6-dihydro-2H-1,4-thiazin-3-yl)-6-fluoro-3-pyridinyl)-5-fluoro-3-methoxy-1,7-naphthyridin-8-amine] | 39.7 µM |  | 0.00144 µM | 0.0029 µM | 
CC1(c2cc(NC(=O)c3ccc(Cl)cn3)cc(F)c2F)CS(=O)(=O)C(C)(C)C(N)=N1 (stereo not drawn) [Example 35, N-(3-(-5-amino-3,6,6-trimethyl-1,1-dioxido-3,6-dihydro-2H-1,4-thiazin-3-yl)-4,5-difluorophenyl)-5-chloro-2-pyridinecarboxamide] | 99.8 µM | 0.0027 µM |  |  | IC50 [1, 6]: 0.0122 µM
CC1(C)C(N)=N[C@](C)(c2cc(Oc3ccc(F)cn3)ccc2F)CS1(=O)=O [Example 275, (5R)-5-(2-fluoro-5-((5-fluoro-2-pyridinyl)oxy)phenyl)-2,2,5-trimethyl-5,6-dihydro-2H-1,4-thiazin-3-amine 1,1-dioxide] | 364 µM |  | 0.84 µM | 0.424 µM | 
N-(3-((4aR,7aS)-3-amino-2,2-dimethyl-1,1-dioxido-7,7a-dihydro-2H-furo[3,4-b][1,4]thiazin-4a(5H)-yl)-4-fluorophenyl)-5-chloro-3-methyl-2-pyridinecarboxamide, N-(3-((4aS,7aR)-3-amino-2,2-dimethyl-1,1-dioxido-7,7a-dihydro-2H-furo[3,4-b][1,4]thiazin-4a(5H)-yl)-4-fluorophenyl)-5-chloro-3-methyl-2-pyridinecarboxamide [Example 427] | 220 µM |  | 0.001 µM |  | IC50 ([1]; average IC50, cell assay): 0.033 µM
CC1(C)C(N)=N[C@](C)(c2cc(NC(=O)c3ccc(C#N)cn3)ccc2F)CS1(=O)=O [Example 23, N-(3-((3R)-5-amino-3,6,6-trimethyl-1,1-dioxido-3,6-dihydro-2H-1,4-thiazin-3-yl)-4-fluorophenyl)-5-cyano-2-pyridinecarboxamide] | 617 µM | 0.0027 µM |  |  | IC50 [1, 6]: 0.0027 µM
C[C@@]1(c2cc(NC(=O)c3ccc(Cl)cn3)ccc2F)CS(=O)(=O)CC(N)=N1 [Example 29, N-(3-((3R)-5-amino-3-methyl-1,1-dioxido-3,6-dihydro-2H-1,4-thiazin-3-yl)-4-fluorophenyl)-5-chloro-2-pyridinecarboxamide] | 118 µM | 0.006 µM |  |  | IC50 [1, 6]: 0.0108 µM
C[C@@]1(c2cc(Nc3nccc4cc(Cl)cnc34)cnc2F)CS(=O)(=O)C2(CCC2)C(N)=N1 [Example 230, N-(5-((7R)-9-amino-7-methyl-5,5-dioxido-5-thia-8-azaspiro[3.5]non-8-en-7-yl)-6-fluoro-3-pyridinyl)-3-chloro-1,7-naphthyridin-8-amine] | 23.2 µM |  | 0.00376 µM | 0.0188 µM | 
C[C@@]1(c2cc(N)cnc2F)CS(=O)(=O)C2(CCC2)C(N)=N1 [Example 415, (7R)-7-(5-amino-2-fluoro-3-pyridinyl)-7-methyl-5-thia-8-azaspiro[3.5]non-8-en-9-amine 5,5-dioxide] | 104 µM | 14.5 µM |  |  | IC50 ([1]; Homo sapiens, HEK293): > 15.6 µM
COc1cnc(C(=O)Nc2ccc(F)c([C@]3(CF)CS(=O)(=O)C(C)(C)C(N)=N3)c2)c(OC)n1 [Example 155, (S)—N-(3-(5-amino-3-(fluoromethyl)-6,6-dimethyl-1,1-dioxido-3,6-dihydro-2H-1,4-thiazin-3-yl)-4-fluorophenyl)-3,5-dimethoxypyrazine-2-carboxamide] | 470 µM |  | 0.0043 µM | 0.0351 µM | 
CC1(C)C(N)=N[C@](C)(c2cc(Oc3cc(-c4ccncc4)ccn3)ccc2F)CS1(=O)=O [Example 290, (5R)-5-(5-(4,4′-bipyridin-2-yloxy)-2-fluorophenyl)-2,2,5-trimethyl-5,6-dihydro-2H-1,4-thiazin-3-amine 1,1-dioxide] | 826 µM |  | 0.328 µM | 0.318 µM | 
CC1(C)C(N)=N[C@](C)(c2cc(Nc3nccc4cc(OCC(F)F)cnc34)ccc2F)CS1(=O)=O [Example 161, (R)-5-amino-3-(5-((3-(2,2-difluoroethoxy)-1,7-naphthyridin-8-yl)amino)-2-fluorophenyl)-3,6,6-trimethyl-3,6-dihydro-2H-1,4-thiazine 1,1-dioxide] | 447 µM |  | 0.0143 µM | 0.0178 µM | 
Cc1cc(C(F)F)cnc1C(=O)Nc1ccc(F)c([C@@]2(C)N=C(N)C3(CC3)S(=O)(=O)[C@@H]2F)c1 [Example 206, N-(3-((5S,6R)-8-amino-5-fluoro-6-methyl-4,4-dioxido-4-thia-7-azaspiro[2.5]oct-7-en-6-yl)-4-fluorophenyl)-5-(difluoromethyl)-3-methyl-2-pyridinecarboxamide] | 193 µM |  |  |  | IC50 ([1]; Homo sapiens, HEK293, average IC50, HEK cells): 0.0054 µM; IC50 ([3]; average IC50): 0.0019 µM
COc1cnc2c(Nc3ccc(F)c(C4(C(F)F)CS(=O)(=O)C(C)(C)C(N)=N4)c3)nccc2c1 (stereo not drawn) [Example 62, N-(3-(5-amino-3-(difluoromethyl)-6,6-dimethyl-1,1-dioxido-3,6-dihydro-2H-1,4-thiazin-3-yl)-4-fluorophenyl)-3-methoxy-1,7-naphthyridin-8-amine] | > 400 µM | 0.241 µM |  |  | IC50 [1, 6]: 1.82 µM

The next lines start with results.

IC50 [2] | IC50 [3] | IC50 ([3]; average IC50, enzyme assay) | IC50 [1, 5] | Compound | further results
822 µM | 0.0377 µM |  |  | CC(C)c1c(C(=O)Nc2ccc(F)c([C@]3(CF)CS(=O)(=O)C(C)(C)C(N)=N3)c2)nc2ccc(Cl)cn12 [Example 395, N-(3-((3S)-5-amino-3-(fluoromethyl)-6,6-dimethyl-1,1-dioxido-3,6-dihydro-2H-1,4-thiazin-3-yl)-4-fluorophenyl)-6-chloro-3-(1-methylethyl)imidazo[1,2-a]pyridine-2-carboxamide] | IC50 ([1]; Homo sapiens, HEK293): 0.125 µM
476 µM |  | 0.0012 µM | 0.1 µM | CC1(C)C(N)=N[C@](CF)(c2cc(Nc3ncc(F)c4cc(OCC5CC5)cnc34)ccc2F)CS1(=O)=O [Example 431, N-(3-((3S)-5-amino-3-(fluoromethyl)-6,6-dimethyl-1,1-dioxido-3,6-dihydro-2H-1,4-thiazin-3-yl)-4-fluorophenyl)-3-(cyclopropylmethoxy)-5-fluoro-1,7-naphthyridin-8-amine] | 
1220 µM |  | 0.00195 µM |  | C[C@]1(F)C(N)=N[C@](C)(c2cc(NC(=O)c3ccc(F)cn3)ccc2F)CS1(=O)=O [Example 322, N-(3-((3R,6R)-5-amino-6-fluoro-3,6-dimethyl-1,1-dioxido-3,6-dihydro-2H-1,4-thiazin-3-yl)-4-fluorophenyl)-5-fluoro-2-pyridinecarboxamide] | IC50 [1, 4]: 0.134 µM
444 µM |  | 1.34 µM |  | Cc1ccnc(Oc2ccc(F)c([C@]3(C)CS(=O)(=O)C(C)(C)C(N)=N3)c2)c1C#N [Example 310, 2-(3-((3R)-5-amino-3,6,6-trimethyl-1,1-dioxido-3,6-dihydro-2H-1,4-thiazin-3-yl)-4-fluorophenoxy)-4-methyl-3-pyridinecarbonitrile] | IC50 [1, 4]: 0.931 µM
> 133 µM |  | 0.00021 µM |  | CC#CCOc1cnc(C(=O)Nc2ccc(F)c([C@]3(C)CS(=O)(=O)[C@@](C)(F)C(N)=N3)c2)cn1 [Example 317, N-(3-((3R,6R)-5-amino-6-fluoro-3,6-dimethyl-1,1-dioxido-3,6-dihydro-2H-1,4-thiazin-3-yl)-4-fluorophenyl)-5-(2-butyn-1-yloxy)-2-pyrazinecarboxamide] | IC50 [1, 4]: 0.0036 µM
196 µM |  | 0.00078 µM |  | CC#CCOc1cnc(C(=O)Nc2cnc(F)c([C@]3(C)CS(=O)(=O)C4(CCC4)C(N)=N3)c2)c(C)c1 [Example 349, N-(5-((7R)-9-amino-7-methyl-5,5-dioxido-5-thia-8-azaspiro[3.5]non-8-en-7-yl)-6-fluoro-3-pyridinyl)-5-(2-butyn-1-yloxy)-3-methyl-2-pyridinecarboxamide] | IC50 [1, 4]: 0.0013 µM
268 µM | 0.00026 µM |  |  | CC1(C)C(N)=N[C@](CF)(c2cc(NC(=O)c3ccc(OCC#CCF)cn3)ccc2F)CS1(=O)=O [Example 389, N-(3-((3S)-5-amino-3-(fluoromethyl)-6,6-dimethyl-1,1-dioxido-3,6-dihydro-2H-1,4-thiazin-3-yl)-4-fluorophenyl)-5-((4-fluoro-2-butyn-1-yl)oxy)-2-pyridinecarboxamide] | IC50 ([1]; Homo sapiens, HEK293): 0.0014 µM
